Laboratory results: US10604476B2, “Fluorinated amide derivatives and their uses as therapeutic agents” (Trillium Therapeutics Inc., priority 2015, dated 2020)

What was measured:
audiogenic seizure (AGS) = experiment: Frings AGS-susceptible mouse model; assay type: in vivo; conditions: ip, read-out: ED50, block of AGS
Source text: Frings audiogenic seizure (AGS)-susceptible mice model examines the ability of an investigational drug to alter the onset and/or severity of seizures in a genetic mouse model of seizure susceptibility. Mice are genetically susceptible to sound-induced reflex seizures. Their seizure phenotype is characterized by wild running, loss of righting reflex, tonic flexion, and tonic extension in response to high-intensity sound stimulation. […] For example, the prototypical anticonvulsants phenytoin and ethosuximide display widely divergent clinical spectrums in humans, but are both active against sound-induced seizures in mice. Yet, the preclinical utility of this animal model rests in the useful information that can be obtained within a genetically susceptible model of seizures. Further, efficacy in this model provides proof of concept of brain bioavailability following systemic administration. […] At the time of peak effect as determined in the MES test (Test 4 in CF1 mice), individual mice are placed in a round plexiglass jar (diameter, 15 cm; height, 18 cm) and exposed to a sound stimulus of 110 decibels (11 KHz) delivered for 20 sec. […] The severity of a seizure may also be quantitated by assigning a numerical score to the observed response, e.g. no response—0; wild running for <10 sec—1; wild running for >10 sec—2; clonic seizure—3; forelimb extension/hind limb flexion—4; tonic seizure—5.

[1] = tested on: formalin-induced paw licking; experiment: Mouse formalin test; assay type: in vivo; conditions: 41 mg/kg i.p.; most pronounced in second (late) phase
Procedure: The formalin test is performed according to the method of Tjolsen et al. Pain, 1992. 51(1). An injection of 0.5% formalin (Sigma) is made into the planter region of the right hind paw of an adult (26-30 g) male CF-1 mouse. Sub-dermal formalin injection elicits a distinct behavioral profile characterized by the mouse licking the affected paw. The behavior is characteristically biphasic in nature. For example, immediately following the injection the mouse licks the paw intensely for approximately 10 min. This is referred to as phase 1 (or, the acute phase) and is followed by a brief latent period (<5 minutes) where there is little behavioral activity. A more prolonged period of about 20-30 min of activity then ensues, which constitutes phase 2 (or, the inflammatory phase). […] The area under the curve (AUG) is calculated for both the acute and inflammatory phases of the licking response for individual animals in both the test and control groups. The percent of control AUG for drug-treated animal groups is determined using the Graph-Pad Prism Version 3.03. The total AUG for each phase of the test group is also calculated and converted to percentage of total AUG of control for each phase. The average and S.E.M. for both the drug treated and control percentages are calculated and tested for significant difference.

cold allodynia = experiment: Spinal nerve injury (SNI) model, acetone test; assay type: in vivo, rat
Source text: The SNI model of neuropathic pain was developed in rats using the procedure described by Decostered and Woolf, Pain 2000, 87: 149-158. Under isoflurane anesthesia, the skin on the lateral surface of the thigh was incised and a section was made directly through the biceps femoris muscle exposing the sciatic nerve and its three terminal branches: the sural, common peroneal and tibial nerves. The common peroneal and the tibial nerves were tight-ligated with 6-0 suture and sectioned distal to the ligation, removing 2-4 mm of the distal nerve stump. Extreme care was taken to avoid any contact with or stretching of the intact sural nerve. Following surgery, hemostasis was confirmed and the muscles were sutured in layers using 4-0 suture and the skin was closed with 4-0 suture and metal clips. Cold allodynia was assessed by using the acetone test. In this test, 25 μl of acetone is sprayed on to the plantar surface of the hind paw. Evaporation of acetone causes cooling of the skin. The cold stimulus sets up nociceptive responses from the injured paw as evidenced by paw lifting, paw licking and grooming. The duration of the nociceptive responses is noted.

SMILES | ED50 (audiogenic seizure (AGS)) | number of paw licks [1] | cold allodynia in the neuropathic rats (cold allodynia)
C[C@@H](Oc1cc(Cl)cc(C(F)(F)F)c1)C(N)=O [I(D), (2R)-2-[3-chloro-5-(trifluoromethyl)-phenoxy]propanamide] | 28.9 ± 3.08 mg/kg | – | –
NC(=O)COc1cc(C(F)(F)F)cc(C(F)(F)F)c1 [I(F), 2-[3,5 bis(trifluoromethyl)-phenoxy]acetamide;] | – | significant decrease | significantly reduced
